Experimental data published in paper PMC9562916, “Investigation of the Phenolic Component Bioavailability Using the In Vitro Digestion/Caco-2 Cell Model, as well as the Antioxidant Activity in Chinese Red Wine” (Foods, 2022).
Where two headings read alike, the source gives them in different places. Marks after values point to notes of the source that are not given here.

Key:
[1] = PC content of red wine before and after in vitro simulated gastrointestinal digestion (HPLC); format: in vitro ADME
Experimental: The digestion procedure was carried out by adapting the method of Brodkorb et al. and Gómez et al.. […] One milliliter (50 units/mL) of porcine amylase was prepared in a 15 mM Na₃PO₄ buffer solution (pH adjusted to 6.8) containing 1.5 mM CaCl2, and it was added to the red wine solution. After 5 min, 4.5 mL of 0.12 M HCl was added to the mixture to adjust the pH to 2.4. One milliliter of porcine pepsin (0.02 mg/L) was dissolved in a 20 mM HCl solution. The mixture was then maintained at 37 °C for 120 min. The digestion mixture was then centrifuged at 8000× g for 15 min to obtain samples from the gastric digestion phase. […] The mixture was incubated at pH 6.5 at 37 °C for 3 h before being centrifuged. The extracts of the intestinal phase were the supernatants. The same operation was done three times, and each sample was stored in a refrigerator (−20 °C) immediately for further analysis.
The Pati method was adopted, with slight modifications, to measure the content of the PCs. The Agilent 1100 series HPLC instrument was used; it was equipped with a degasser, quaternary pump solvent delivery, a DAD system, and a single quadrupole mass detector coupled with an electrospray ionization LC–MS interface. Briefly, th samples were injected into a Zorbax SB C18 reversed-phase column (5 µm,150 × 2.1 mm, Agilent Technologies, Santa Clara, CA, USA) using an autosampler after filtering through 0.45 µm cellulose acetate syringe filters. The column temperature was kept at 30 °C, the injection volume was 10 µL, and the flow rate was 0.3 mL/min. The eluents were water and formic acid in a 99:1 (v/v) (A) ratio and 100% acetonitrile (B). […] The MS configuration was as follows: ESI, negative ion mode, nebulizer pressure of 30 psi, a dry gas flow rate of 10 mL/min, dry gas temperature of 350 °C, and a scan rate of 100~1200 m/z. PCs were determined according to their retention times, UV/VIS spectra, and high-resolution MS spectra, in addition to a comparison with the standards. […] Putative annotations were made using spectral features and literature information on the chromatographic properties and mass spectra records from the metabolome database. A standard curve was drawn using methanol solutions with different concentrations as the standards. The limits of detection and quantitation were calculated according to the signal-to-noise ratio (limit of detection: signal-to-noise ratio ≥ 3; limit of quantitation: signal-to-noise ratio ≥ 10). […] PCs All of the samples were determined in triplicate.

[2] = Caco-2 transepithelial transport assay of digested red wine; format: in vitro ADME, human; settings: human
Experimental: (§1) Caco-2 cells were inoculated following the method of Hubatsch et al. […] Briefly, a 5% v/v of CO2 incubator at 37 °C was used to house the cells. […] Caco-2 cells were sub-cultured when they reached 80-90% of the adherent growth by treating them with a 0.05% v/v of trypsin-EDTA solution. The culture between passages 35 and 40 was used for the following experiment. Transport experiments were performed according to the method of Wu et al. with slight modifications. First, 1.0 × 10^5 Caco-2 cells were inoculated onto 12 mm transparent cell culture plates (Transwell). Media were carefully injected into the apical (0.5 mL) and basolateral (1.5 mL) sides of the Transwell plates. The cell culture medium had to be replaced every other day until the cells formed a monolayer. The integrity and transport ability of the Caco-2 cell monolayer were evaluated by measuring the trans-epithelial electrical resistance (TEER) with a MilliCell voltammeter (Millicell ERS-2, Merck Millipore, Billerica, MA, USA). […] When the cell activity exceeded 0.9, a transport experiment was conducted. The apical side was injected with a digested red wine sample (0.5 mL) and was thoroughly mixed with […] Balanced Salt Solution (HBSS) buffer solution. […] The cells were then cultured in a 37 °C, 5% CO2 incubator. Then, 0.25 mL samples were separately taken from the basolateral side of the monolayer. An equal volume of HBSS buffer was then added every half hour from the beginning of the culture until the end of the culture at 6 h. The collected samples were subsequently filtered and placed in the sample bottle for further HPLC analysis. This experiment was repeated several times to collect enough samples for the next antioxidant test. […] The Agilent 1100 series HPLC instrument was used; it was equipped with a degasser, quaternary pump solvent delivery, a DAD system, and a single quadrupole mass detector coupled with an electrospray ionization LC-MS interface. […] The column temperature was kept at 30 °C, the injection volume was 10 μL, and the flow rate was 0.3 mL/min. The eluents were water and formic acid in a 99:1 (v/v) (A) ratio and 100% acetonitrile (B). The gradient elution procedure was as follows: (1) 3% B solvent at 0 min, (2) 3 to 16% B solvent at 10 min, (3) 16 to 20% B solvent at 30 min, and (4) 20% B solvent maintained until the procedure was completed. The MS configuration was as follows: ESI, negative ion mode, nebulizer pressure of 30 psi, a dry gas flow rate of 10 mL/min, dry gas temperature of 350 °C, and a scan rate of 100~1200 m/z. PCs were determined according to their retention times, UV/VIS spectra, and high-resolution MS spectra, in addition to a comparison with the standards. […] If a standard was unavailable, a structurally related compound was used. Putative annotations were made using spectral features and literature information on the chromatographic properties and mass spectra records from the metabolome database. A standard curve was drawn using methanol solutions with different concentrations as the standards. […] PCs All of the samples were determined in triplicate.

Caco-2 cell monolayer = test: as above; format: in vitro ADME, human
Experimental: as §1

[3] = Cabernet red wine, after simulated gastrointestinal digestion
[4] = Tianzhu red wine, after simulated gastrointestinal digestion
[5] = Caco-2, apical to basolateral, digested Cabernet red wine, read-out: Apparent Permeability Coefficients, Cabernet
[6] = Caco-2, apical to basolateral, digested Helanshan red wine, read-out: Apparent Permeability Coefficients, Helanshan
[7] = Caco-2, apical to basolateral, digested Tianzhu red wine, read-out: Apparent Permeability Coefficients, Tianzhu
[8] = Cabernet red wine, digested sample, basolateral side of Caco-2 monolayer
[9] = Helanshan red wine, digested sample, basolateral side of Caco-2 monolayer
[10] = Tianzhu red wine, digested sample, basolateral side of Caco-2 monolayer
[11] = Helanshan red wine, after simulated gastrointestinal digestion
[12] = apical to basolateral, digested Cabernet red wine
[13] = apical to basolateral, digested Helanshan red wine
[14] = apical to basolateral, digested Tianzhu red wine

Row | Papp at 6 h [2, 5] [×10⁻⁶ cm/s] | Papp at 6 h [2, 6] [×10⁻⁶ cm/s] | Papp at 6 h [2, 7] [×10⁻⁶ cm/s] | Compound | PC Contents, Cabernet, After Digestion [1, 3] | PC Contents, Tianzhu, After Digestion [1, 4] | PC Contents, Cabernet, Transmembrane (Caco-2 cell monolayer; [8]) | PC Contents, Helanshan, Transmembrane (Caco-2 cell monolayer; [9]) | PC Contents, Tianzhu, Transmembrane (Caco-2 cell monolayer; [10]) | PC Contents, Helanshan, After Digestion [1, 11] | Apparent Permeability Coefficients, Cabernet (Caco-2 cell monolayer; [12]) | Apparent Permeability Coefficients, Helanshan (Caco-2 cell monolayer; [13]) | Apparent Permeability Coefficients, Tianzhu (Caco-2 cell monolayer; [14]) | other results
1 | 8.93 ± 1.02 | 8.77 ± 1.28 | 8.45 ± 1.31 | O=C(/C=C/c1ccc(O)c(O)c1)O[C@@H](C(=O)O)[C@@H](O)C(=O)O [Caftaric acid] | 3.01 ± 0.17 ^b mg/L | 5.35 ± 0.23 ^b mg/L | 0.43 ± 0.01 ^a mg/L | 0.49 ± 0.02 ^a mg/L | 1.07 ± 0.03 ^a mg/L | – | – | – | – | –
2 | 11.4 ± 1.77 | 11.5 ± 1.53 | 11.4 ± 1.46 | Oc1cc(O)c2c(c1)O[C@H](c1ccc(O)c(O)c1)[C@H](O)C2 [Epicatechin] | – | – | – | – | – | – | – | – | – | –
3 | – | – | – | O=C(O)c1cc(O)c(O)c(O)c1 [Gallic acid] | 9.08 ± 0.44 ^b mg/L | 6.91 ± 0.26 ^b mg/L | 4.61 ± 0.23 ^a mg/L | 2.53 ± 0.14 ^a mg/L | 1.38 ± 0.05 ^a mg/L | – | – | – | – | bioavailability ([2]; Caco-2): 24%; Papp at 6 h ([2]; Caco-2, Apparent Permeability Coefficients, Cabernet): 31.7 ± 3.82 ×10⁻⁶ cm/s; Papp at 6 h ([2]; Caco-2, Apparent Permeability Coefficients, Helanshan): 30.9 ± 3.99 ×10⁻⁶ cm/s; Papp at 6 h ([2]; Caco-2, Apparent Permeability Coefficients, Tianzhu): 32.8 ± 4.13 ×10⁻⁶ cm/s
4 | – | – | – | COc1cc(-c2[o+]c3cc(O)cc(O)c3cc2O[C@@H]2O[C@H](COC(C)=O)[C@@H](O)[C@H](O)[C@H]2O)cc(OC)c1O [Malvidin-3-acglc] | 39.8 ± 1.51 ^b mg/L | 39.3 ± 1.30 ^b mg/L | 8.02 ± 0.38 ^a mg/L | 6.06 ± 0.25 ^a mg/L | 7.83 ± 0.23 ^a mg/L | 30.5 ± 0.92 ^b mg/L | 12.59 ± 2.16 ^a ×10^−6 cm/s | 12.42 ± 2.23 ^a ×10^−6 cm/s | 12.37 ± 2.45 ^a ×10^−6 cm/s | –
5 | – | – | – | COc1cc(-c2[o+]c3cc(O)cc(O)c3cc2O[C@@H]2O[C@H](CO)[C@@H](O)[C@H](O)[C@H]2O)cc(OC)c1O [Malvidin-3-glc, malvidin-3-glucoside] | 153.43 ± 5.83 ^b mg/L | 103.8 ± 5.71 ^b mg/L | 62.38 ± 3.24 ^a mg/L | 35.55 ± 1.46 ^a mg/L | 20.68 ± 1.05 ^a mg/L | 88.2 ± 3.97 ^b mg/L | – | 25.19 ± 3.99 ^a ×10^−6 cm/s | 25.37 ± 4.11 ^a ×10^−6 cm/s | –
6 | 2.46 ± 0.23 | 2.37 ± 0.34 | 2.41 ± 0.26 | C[C@@H]1O[C@@H](O[C@H]2C(=O)c3c(O)cc(O)cc3O[C@@H]2c2ccc(O)c(O)c2)[C@H](O)[C@H](O)[C@H]1O [Astilbin] | 28.22 ± 1.07 ^b mg/L | 25.36 ± 1.32 ^b mg/L | 1.11 ± 0.05 ^a mg/L | 0.93 ± 0.04 ^a mg/L | 5.05 ± 0.19 ^a mg/L | 24.63 ± 1.13 ^b mg/L | – | – | – | –
7 | – | – | – | COc1cc(-c2[o+]c3cc(O)cc(O)c3cc2OC2OC(COC(C)=O)C(O)C(O)C2O)cc(O)c1O (centres unmarked) [Petunidin-3-acglc] | – | – | – | – | – | – | – | – | – | PC Contents, Cabernet, After Digestion [1]: 1.05 ± 0.05 ^b mg/L; PC Contents, Helanshan, After Digestion [1]: 0.98 ± 0.05 ^b mg/L; PC Contents, Tianzhu, After Digestion [1]: 1.17 ± 0.04 ^b mg/L; Apparent Permeability Coefficients, Cabernet (Caco-2 cell monolayer; Caco-2): 11.53 ± 2.01 ^a ×10^−6 cm/s; Apparent Permeability Coefficients, Helanshan (Caco-2 cell monolayer; Caco-2): 11.78 ± 2.11 ^a ×10^−6 cm/s; Apparent Permeability Coefficients, Tianzhu (Caco-2 cell monolayer; Caco-2): 11.46 ± 2.05 ^a ×10^−6 cm/s; PC Contents, Cabernet, Transmembrane (Caco-2 cell monolayer; Caco-2): 0.19 ± 0.008 ^a mg/L; PC Contents, Helanshan, Transmembrane (Caco-2 cell monolayer; Caco-2): 0.18 ± 0.005 ^a mg/L; PC Contents, Tianzhu, Transmembrane (Caco-2 cell monolayer; Caco-2): 0.23 ± 0.008 ^a mg/L
8 | – | – | – | CC(=O)OCC1OC(Oc2cc3c(O)cc(O)cc3[o+]c2-c2cc(O)c(O)c(O)c2)C(O)C(O)C1O (centres unmarked) [Delphinidin-3-acglc] | 0.29 ± 0.014 ^b mg/L | 0.22 ± 0.008 ^b mg/L | 0.04 ± 0.002 ^a mg/L | 0.02 ± 0.001 ^a mg/L | 0.04 ± 0.002 ^a mg/L | 0.14 ± 0.007 ^b mg/L | 8.57 ± 1.26 ^a ×10^−6 cm/s | 8.64 ± 1.38 ^a ×10^−6 cm/s | 8.78 ± 1.44 ^a ×10^−6 cm/s | –
9 | – | – | – | O=c1c(OC2O[C@H](CO)[C@@H](O)[C@H](O)[C@H]2O)c(-c2cc(O)c(O)c(O)c2)oc2cc(O)cc(O)c12 (some centres unmarked) [Myricetin-3-glc] | 36.91 ± 1.10 ^b mg/L | 43.22 ± 1.34 ^b mg/L | 0.81 ± 0.04 ^a mg/L | 0.64 ± 0.02 ^a mg/L | 8.61 ± 0.43 ^a mg/L | 28.45 ± 1.51 ^b mg/L | 1.38 ± 0.17 ^a ×10^−6 cm/s | 1.41 ± 0.21 ^a ×10^−6 cm/s | 1.35 ± 0.19 ^a ×10^−6 cm/s | –

Row | Compound | Papp at 6 h [2, 5] [×10⁻⁶ cm/s] | Papp at 6 h [2, 6] [×10⁻⁶ cm/s] | Papp at 6 h [2, 7] [×10⁻⁶ cm/s] | PC Contents, Cabernet, After Digestion [1, 3] | PC Contents, Tianzhu, After Digestion [1, 4] | PC Contents, Cabernet, Transmembrane (Caco-2 cell monolayer; [8]) | PC Contents, Helanshan, Transmembrane (Caco-2 cell monolayer; [9]) | PC Contents, Tianzhu, Transmembrane (Caco-2 cell monolayer; [10]) | PC Contents, Helanshan, After Digestion [1, 11] | Apparent Permeability Coefficients, Cabernet (Caco-2 cell monolayer; [12]) | Apparent Permeability Coefficients, Helanshan (Caco-2 cell monolayer; [13]) | Apparent Permeability Coefficients, Tianzhu (Caco-2 cell monolayer; [14]) | other results
10 | O=c1c(O[C@@H]2O[C@H](CO)[C@@H](O)[C@H](O)[C@H]2O)c(-c2ccc(O)c(O)c2)oc2cc(O)cc(O)c12 [Isoquercetin] | 3.84 ± 0.29 | 3.73 ± 0.27 | 3.87 ± 0.23 | 13.46 ± 0.59 ^b mg/L | 19.13 ± 0.69 ^b mg/L | 0.83 ± 0.04 ^a mg/L | 0.72 ± 0.04 ^a mg/L | 3.81 ± 0.18 ^a mg/L | 12.01 ± 0.37 ^b mg/L | – | – | – | Increase in content after digestion ([1]; Tianzhu red wine, after digestion vs undigested): 9.8%
